# Measurements taken from publication PMC9139979, “Features of ZED1227: The First-In-Class Tissue Transglutaminase Inhibitor Undergoing Clinical Evaluation for the Treatment of Celiac Disease” (Cells, 2022).
# Entries after “also recorded” stand apart in the source; their conditions may differ.
# Columns and labels:
# Huh7 cells [1] = experiment: BrdU cell proliferation ELISA, Huh7; type: cell-based, human; settings: up to 1,000 μM, 24 h + 24 h
# Experimental: Cytotoxicological analysis of ZED1227 was performed using Huh7 (human liver carcinoma, CLS Cell Lines Service GmbH, Eppelheim, Germany) and Caco-2 cells (human epithelial colorectal adenocarcinoma, Sigma Aldrich, Taufkirchen, Germany) with respect to the effect on proliferation and viability, according to the assay protocols provided by the manufacturers of the respective kits. The Cell Proliferation ELISA (BrdU, colorimetric) was purchased from Roche (Mannheim, Germany), whereas the Cell Proliferation and Cytotoxicity Assay EZ4U was purchased from Biomedica (Vienna, Austria). Briefly, Caco-2 cells (in MEM with 1% non-essential amino acid solution, both Sigma Aldrich (Taufkirchen, Germany), 10% fetal bovine serum, 2 mM L-glutamine, 100 U/mL penicillin–streptomycin, all from Gibco) or Huh7 cells (in DMEM low glucose, Sigma Aldrich (Taufkirchen, Germany), 10% fetal bovine serum, 1 mM sodium pyruvate, 100 U/mL penicillin–streptomycin, all from Gibco) were cultured in 96 well plates, using 2.5 μg/mL cycloheximide and 0.2 μg/mL camptothecin-treated cells as positive control. In the 5-bromo-2′-deoxyuridine (BrdU) assay (determination of cell proliferation), the cells were incubated with ZED1227 working solution (1% DMSO in culture medium) up to a concentration of 1,000 μM for 24 h, followed by addition of BrdU into the culture medium and further culturing for 24 h. […]
# Caco-2 cells = experiment: EZ4U viability assay, Caco-2; type: cell-based; settings: up to 1,000 μM, 48 h
# Experimental: (§1) Cytotoxicological analysis of ZED1227 was performed using Huh7 (human liver carcinoma, CLS Cell Lines Service GmbH, Eppelheim, Germany) and Caco-2 cells (human epithelial colorectal adenocarcinoma, Sigma Aldrich, Taufkirchen, Germany) with respect to the effect on proliferation and viability, according to the assay protocols provided by the manufacturers of the respective kits. The Cell Proliferation ELISA (BrdU, colorimetric) was purchased from Roche (Mannheim, Germany), whereas the Cell Proliferation and Cytotoxicity Assay EZ4U was purchased from Biomedica (Vienna, Austria). […]
# (§2) The EZ4U assay (determination of viability) was performed by incubating the cells with ZED1227 working solution (1% DMSO in culture medium) up to a concentration of 1,000 μM for 48 h, followed by addition of a yellow tetrazolium reagent (not further specified) into the culture medium. The non-toxic tetrazolium salts were reduced to red-colored formazan which was quantified spectrophotometrically. […]
# Huh7 cells [2] = experiment: EZ4U viability assay, Huh7; type: cell-based; settings: up to 1,000 μM, 48 h
# Experimental: as §1, §2
# hTG1 = target: T1, hTG1 (Homo sapiens, UniProt P22735); experiment: Fluorescent transamidation assay (DCC-assay), hTG1; type: biochemical
# T1 construct: purchased Zedira T035
# T1 sequence (P22735 1-817): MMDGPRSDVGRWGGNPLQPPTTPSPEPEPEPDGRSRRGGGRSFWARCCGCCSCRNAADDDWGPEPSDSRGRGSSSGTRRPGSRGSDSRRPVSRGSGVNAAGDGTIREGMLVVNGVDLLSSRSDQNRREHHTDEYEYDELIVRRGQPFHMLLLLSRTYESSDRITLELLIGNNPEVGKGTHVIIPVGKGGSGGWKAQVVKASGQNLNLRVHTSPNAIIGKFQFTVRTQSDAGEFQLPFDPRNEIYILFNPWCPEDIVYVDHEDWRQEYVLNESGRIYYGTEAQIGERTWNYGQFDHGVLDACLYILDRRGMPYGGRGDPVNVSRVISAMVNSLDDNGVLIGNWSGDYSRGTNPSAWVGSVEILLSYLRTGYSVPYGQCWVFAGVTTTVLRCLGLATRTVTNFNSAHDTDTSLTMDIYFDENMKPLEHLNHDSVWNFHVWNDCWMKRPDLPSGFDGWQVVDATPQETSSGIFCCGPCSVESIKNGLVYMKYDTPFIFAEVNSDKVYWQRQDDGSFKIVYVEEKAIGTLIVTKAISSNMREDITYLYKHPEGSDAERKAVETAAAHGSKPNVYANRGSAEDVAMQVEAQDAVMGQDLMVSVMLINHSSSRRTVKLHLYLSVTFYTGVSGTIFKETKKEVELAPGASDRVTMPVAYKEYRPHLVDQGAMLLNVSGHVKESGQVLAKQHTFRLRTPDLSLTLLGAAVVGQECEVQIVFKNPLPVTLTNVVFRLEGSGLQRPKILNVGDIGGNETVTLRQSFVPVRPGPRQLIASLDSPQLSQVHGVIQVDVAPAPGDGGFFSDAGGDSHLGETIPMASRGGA
# Experimental: Inhibition data were determined using the fluorescent transamidation assay (dansylcadaverine incorporation into glutamine-donor substrate N,N-dimethyl casein, DCC-assay). Briefly, to 15 μL of ZED1227 solution (dissolved and serial diluted in 2% (v/v) DMSO/assay buffer), 285 μL assay buffer [47.5 mM tris(hydroxymethyl)aminomethane, 9.5 mM CaCl2, 9.5 mM glutathione, 2.4% (v/v) glycerol, 190 mM NaCl, pH 8.0] containing dansylcadaverine (15.9 μM), N,N-dimethyl casein (3.8 μM) and the indicated recombinant transglutaminase enzyme [0.95 μg/mL hTG1 (T035), 0.81 μg/mL hTG2 (T022), 0.83 μg/mL hTG6 (T021), all from Zedira] were added, mixed and the kinetic measurement started immediately. […]
# Fluorescence emission was continuously monitored for 30 min at λem = 500 nm (λex = 330 nm) and 37 °C using a CLARIOstar fluorescence plate reader (BMG Labtech, Ortenberg, Germany). […] The respective IC50 (and IC90 for TG2) values were calculated by non-linear regression using the MARS software package (BMG Labtech). […]
# To facilitate comparability during lead structure optimization and to roughly estimate concentrations needed at the target site, the apparent IC50 values (calculated by four-parameter non-linear fit by MARS software) for irreversible inhibitors are more instructive and are therefore reported. […]
smiles,measurement,setting,value
"CCC(CC)CNC(=O)Cn1cccc(NC(=O)[C@H](CC/C=C/C(=O)OC)NC(=O)c2cncn2C)c1=O [ZED1227, (S,E)-Methyl 7-(1-(2-(2-ethylbutylamino)-2-oxoethyl)-2-oxo-1,2-dihydropyridin-3-ylamino)-6-(1-methyl-1H-imidazole-5-carboxamido)-7-oxohept-2-enoate]","Cytotoxicity: Proliferation, Huh7 cells",Huh7 cells [1],"nor did it affect cell proliferation rates; also recorded: no effect up to 1,000 μM no effect up to 1,000 μM no effect up to 1,000 μM no effect up to 1,000 μM"
same,"Cytotoxicity: Viability, Caco-2 cells",Caco-2 cells,"not cytotoxic up to 1,000 μM; also recorded: no effect up to 1,000 μM no effect up to 1,000 μM no effect up to 1,000 μM no effect up to 1,000 μM"
same,"Cytotoxicity: Viability, Huh7 cells",Huh7 cells [2],"not cytotoxic up to 1,000 μM; also recorded: no effect up to 1,000 μM no effect up to 1,000 μM no effect up to 1,000 μM no effect up to 1,000 μM"
same,Selectivity hTG1 versus hTG2,hTG1; ratio of app. IC50 values,469 fold
same,IC50,"hTG1; recombinant, transamidation assay, read-out: App. IC50 hTG1",24.9 µM
